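All cell lines were grown in 96-well plates and treated with compound for 48 hours. Abbreviation: GI50, concentration required for 50% inhibition of growth.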 Calls of active or inactive are those of the source. Cut-off read from the data, not from the text of the source: active = GI50 up to about 1.1 µM and inactive = higher.

Experimental findings from ChEMBL document CHEMBL1201862, “PubChem BioAssay data set” (2004) are described below.

Some test systems named below: SF-268; COLO 205; SN12C; SNB-19; OVCAR-3; SK-OV-3; K562; LOX IMVI; HCC 2998; HCT-15; MOLT-4; HOP-92; HOP-62; CAKI-1; UACC-257; EKVX; SF-539; ACHN; RXF 393.
Assay in all cases: DTP human tumour cell line panel, 48 h

For orientation: GI50 means the concentration at which growth is held to half of that of the control. As to `CN(c1ccccc1)C(c1ccccc1)C(O)c1ccccc1` (configuration not stated), the GI50 is 21.4 µM (inactive) in the experiment on SF-268; 16.3 µM (inactive) in the experiment on COLO 205; 17.1 µM (inactive) in the experiment on SN12C; 16.8 µM (inactive) with SNB-19; 17.3 µM (inactive) in the experiment with OVCAR-3; 22.6 µM (inactive) in the experiment with SK-OV-3. The GI50 in the experiment with K562 is 17.2 µM (inactive); in the experiment with LOX IMVI it was 17 µM (inactive); in the experiment with HCC 2998 it was 22.9 µM (inactive); with HCT-15 it was 21.7 µM; with MOLT-4, 12.8 µM (inactive); in the experiment on HOP-92, 29.9 µM (inactive). Further, the GI50 in the experiment on HOP-62 is 20.4 µM (inactive); in the experiment with CAKI-1, 20.5 µM (inactive); with UACC-257 it was 19.3 µM (inactive); in the experiment on EKVX it was 25.1 µM (inactive); with SF-539, 22.1 µM (inactive); in the experiment on ACHN, 22.6 µM (inactive).
Consider `CCN(CC)CCN1C(=O)CC2[C@@H]3CCc4cc(OC)ccc4C3CC[C@]2(C)C1=O` (some centres not stated), for which the GI50 in the experiment on SF-268 is 38.5 µM (inactive); with COLO 205 it was 19.5 µM (inactive); with SNB-19, > 100 µM (inactive); with OVCAR-3 it was 56.8 µM (inactive); in the experiment on SK-OV-3 it was > 100 µM (inactive); in the experiment on K562 it was 15.2 µM (inactive). In addition, the GI50 with MOLT-4 is > 10 µM (inactive); in the experiment with HOP-92 it was 24 µM (inactive); in the experiment with RXF 393, 30.5 µM (inactive); in the experiment with HOP-62 it was 25.2 µM (inactive); in the experiment with UACC-257 it was 14.9 µM (inactive); in the experiment on SF-539 it was 0.0134 µM (active). In the experiment on ACHN, the GI50 was 96.4 µM (inactive).
With `COc1ccc(OCC(=O)O)c(C(=O)CCC(=O)O)c1`, the GI50 was > 100 µM (inactive) in the experiment on SF-268; > 100 µM (inactive) in the experiment on COLO 205; > 100 µM (inactive) with SN12C; > 100 µM (inactive) in the experiment with SNB-19; > 10 µM (inactive) with OVCAR-3; > 100 µM (inactive) in the experiment on SK-OV-3. Besides, the GI50 was > 100 µM (inactive) in the experiment with K562; > 100 µM (inactive) in the experiment with LOX IMVI; > 100 µM (inactive) in the experiment on HCC 2998; above 100 µM in the experiment with HCT-15; > 100 µM (inactive) with MOLT-4; > 100 µM (inactive) in the experiment with HOP-92. Moreover, the GI50 in the experiment with RXF 393 is > 100 µM (inactive); in the experiment on HOP-62, > 10 µM (inactive); in the experiment with UACC-257 it was > 100 µM (inactive); with EKVX, > 100 µM (inactive); with SF-539, > 100 µM (inactive); in the experiment on ACHN, > 100 µM (inactive).
Regarding `CC(C)c1cc2c(O)c(c1)Cc1cc(C(C)C)cc(c1O)Cc1cc(C(C)C)cc(c1O)Cc1cc(C(C)C)cc(c1O)C2`, the GI50 in the experiment on SF-268, in the experiment with COLO 205, in the experiment on SNB-19, with OVCAR-3, in the experiment on SK-OV-3 and in the experiment on K562 was > 100 µM (inactive) in each case. Further, the GI50 with LOX IMVI is > 100 µM (inactive); in the experiment on HCT-15 it was above 100 µM; in the experiment on MOLT-4, > 100 µM (inactive); in the experiment with HOP-92 it was > 100 µM (inactive); in the experiment with RXF 393, > 100 µM (inactive); in the experiment on HOP-62, > 100 µM (inactive). For the same compound, the GI50 with CAKI-1, in the experiment on UACC-257, with EKVX and with SF-539 was > 100 µM (inactive) each time.
For the compound `O=C1Nc2ccccc2C1(O)C/C(=N/O)c1ccc2ccccc2c1` (configuration not stated), the GI50 with SF-268 is > 100 µM (inactive); with COLO 205 it was > 100 µM (inactive); in the experiment with SN12C it was > 100 µM (inactive); with SNB-19, > 100 µM (inactive); in the experiment with OVCAR-3 it was > 100 µM (inactive); in the experiment with SK-OV-3 it was 49.1 µM (inactive). For the same compound, the GI50 in the experiment on K562 is 72.6 µM (inactive); in the experiment with LOX IMVI it was 22.3 µM (inactive); in the experiment on HCC 2998, > 100 µM (inactive); with HCT-15, above 100 µM; with MOLT-4 it was 64.9 µM (inactive); with RXF 393, 58.9 µM (inactive). The GI50 in the experiment on HOP-62, in the experiment on UACC-257, in the experiment with EKVX, in the experiment on SF-539 and with ACHN was > 100 µM (inactive) throughout.
In the case of `COc1cc(C2C(C(=O)O)=C(C)Oc3cc4c(cc32)OCO4)cc(OC)c1OC` (configuration not stated), the GI50 with COLO 205 is 23.9 µM (inactive); in the experiment on SN12C, 38.2 µM (inactive); with SNB-19, 40.6 µM (inactive); with OVCAR-3 it was 19.3 µM (inactive); in the experiment on SK-OV-3, 39.9 µM (inactive); in the experiment with K562 it was 19.9 µM (inactive). The GI50 in the experiment with LOX IMVI is 41.3 µM (inactive); in the experiment with HCT-15, 18.5 µM; in the experiment on MOLT-4, 21.3 µM (inactive); with HOP-92, > 100 µM (inactive); in the experiment on RXF 393, 11.6 µM (inactive); in the experiment with CAKI-1 it was 9.04 µM (inactive). Also, the values for the GI50 in the experiment on UACC-257, in the experiment with EKVX and with ACHN were 39.6 µM (inactive), 58.5 µM (inactive) and 45.2 µM (inactive), respectively.
Regarding `COc1ccc(/C=C2/C(=O)N(C(=O)c3ccc(Cl)cc3)N=C2C)cc1OC`, the GI50 in the experiment on SF-268, with COLO 205, in the experiment on SN12C, with SNB-19, with OVCAR-3 and in the experiment with SK-OV-3 was > 100 µM (inactive) throughout. Further, the GI50 was > 100 µM (inactive) with K562; > 100 µM (inactive) in the experiment with LOX IMVI; > 100 µM (inactive) with HCC 2998; above 100 µM in the experiment on HCT-15; > 100 µM (inactive) with HOP-92; > 100 µM (inactive) in the experiment with HOP-62. Besides, the GI50 in the experiment on CAKI-1, in the experiment with UACC-257, in the experiment with EKVX, in the experiment on SF-539 and in the experiment on ACHN was > 100 µM (inactive) each time.
For `O=C(c1ccc2ccccc2c1)C1(I)S(=O)(=O)OCCOS1(=O)=O`, the GI50 with COLO 205, in the experiment with SN12C, in the experiment on SNB-19, in the experiment with OVCAR-3, with K562 and with HCC 2998 was > 100 µM (inactive) in each case. The GI50 with HCT-15 was above 100 µM; in the experiment with MOLT-4, > 100 µM (inactive); in the experiment with HOP-62, > 100 µM (inactive); with CAKI-1, > 100 µM (inactive); with EKVX, > 100 µM (inactive); in the experiment with ACHN, > 100 µM (inactive).
Turning to `COc1cccc(SSc2cccc(OC)c2C(=O)O)c1C(=O)O`, the GI50 in the experiment on SF-268, in the experiment on COLO 205, with SN12C, in the experiment with OVCAR-3, with SK-OV-3 and in the experiment with K562 was > 100 µM (inactive) in each case. In addition, the GI50 was > 100 µM (inactive) with LOX IMVI; above 100 µM in the experiment on HCT-15; > 100 µM (inactive) in the experiment on MOLT-4; > 100 µM (inactive) in the experiment on HOP-92; > 100 µM (inactive) in the experiment with RXF 393; > 100 µM (inactive) with HOP-62. The GI50 in the experiment with CAKI-1, with UACC-257, in the experiment with EKVX, in the experiment with SF-539 and in the experiment on ACHN was > 100 µM (inactive) each time.
As to `CC(=O)Nc1cc(N(CCOS(C)(=O)=O)CCOS(C)(=O)=O)ccc1N=O`, the GI50 with SF-268, in the experiment on COLO 205, in the experiment with SNB-19, in the experiment with OVCAR-3, in the experiment on K562 and in the experiment on HCC 2998 was > 100 µM (inactive) throughout. Moreover, the GI50 was above 100 µM in the experiment on HCT-15; > 100 µM (inactive) with MOLT-4; > 100 µM (inactive) in the experiment with HOP-92; > 100 µM (inactive) in the experiment on HOP-62; > 100 µM (inactive) in the experiment on CAKI-1; > 100 µM (inactive) with UACC-257. The GI50 with SF-539 and with ACHN was > 100 µM (inactive) each time.
Take `Cc1cc(NC(=O)C2C3C=CC(O3)C2C(=O)O)no1` (configuration not stated): the GI50 in the experiment on SF-268 is 24.3 µM (inactive); in the experiment on COLO 205, 17.7 µM (inactive); with SN12C, 37.6 µM (inactive); with SNB-19, > 100 µM (inactive); with OVCAR-3, > 100 µM (inactive); with SK-OV-3, > 100 µM (inactive). The GI50 with K562 is 22.2 µM (inactive); in the experiment with LOX IMVI, 14.3 µM (inactive); with HCC 2998, > 100 µM (inactive); in the experiment on HCT-15, 18.5 µM; in the experiment with MOLT-4, 32.6 µM (inactive); with HOP-92, > 100 µM (inactive). For the same compound, the GI50 in the experiment on RXF 393 was 16.4 µM (inactive); in the experiment on HOP-62, > 100 µM (inactive); with UACC-257 it was 35 µM (inactive); in the experiment with EKVX, > 100 µM (inactive); in the experiment with SF-539 it was 24 µM (inactive); in the experiment with ACHN, 39.7 µM (inactive).
In the case of `CC(=O)NNc1nc(C)c(C(=O)NNC(=O)C(=O)Nc2c([N+](=O)[O-])ccc(C)c2C)s1`, the GI50 is 90.6 µM (inactive) in the experiment with SF-268; > 100 µM (inactive) in the experiment on COLO 205; > 100 µM (inactive) in the experiment on SN12C; > 100 µM (inactive) with SNB-19; > 100 µM (inactive) in the experiment on OVCAR-3; 41.5 µM (inactive) with K562. Moreover, the GI50 is 78.3 µM (inactive) with LOX IMVI; > 100 µM (inactive) in the experiment with HCC 2998; above 100 µM in the experiment on HCT-15; 43.6 µM (inactive) with MOLT-4; > 100 µM (inactive) in the experiment on HOP-92; > 100 µM (inactive) in the experiment with HOP-62. For the same compound, the GI50 in the experiment on CAKI-1, in the experiment with UACC-257, with EKVX, in the experiment on SF-539 and in the experiment on ACHN was > 100 µM (inactive) in each case.
